# Results reported in paper PMC7730438, “Generation of KS-58 as the first K-Ras(G12D)-inhibitory peptide presenting anti-cancer activity in vivo” (Scientific Reports, 2020).
# Values joined by “and” are separate entries in the source; they are usually repeats but may differ in a detail not shown here. Identical values can stand only once. Starred links: 1 amine or outer side, 2 acyl side, 3 side chain; linkers in the order of their positions; H or OH if unused. Positions of bridges follow the written chain, without caps; N, C: chain ends. Non-standard residues stand in square brackets, D forms with d. Residues, ends and D or L forms follow the SMILES beside them. Phe(4-F) = N[C@@H](Cc1ccc(F)cc1)C(=O)O; X1 = CCCCCCC[C@H](N[*:1])C(=O)[*:2]; Nle = CCCC[C@H](N)C(=O)O; X2 = C(C[*:1])C[*:2]; βAla = NCCC(=O)O
# Experiments:
# [1] = test system: PANC-1 subcutaneous xenografts; test: Anti-cancer efficacy in PANC-1 subcutaneous xenografts; assay type: in vivo, mice; conditions: 40 mg/kg iv once every 2 days for 4 weeks
# Description: Animal experiments were carried out at UNITECH Co. Ltd. in accordance with the guidelines of the Animal Care and Use Committee of UNITECH (approval No. AGR IMF-190807A-31, -33, AGR IMF-20615A-30). To establish subcutaneous xenograft tumor models, 1 × 10^7 cells/150 µL of PANC-1 cells were subcutaneously injected into the flank of Crlj:SHO-Prkdc^scidHr^hr female mice (7 weeks old; Charles River Laboratories). KS-58 was dissolved in DMSO and then tenfold diluted by saline. The peptide solution was injected intravenously to the mice bearing tumors once every 2 days for 4 weeks (40 mg/kg, n = 10). The tumor growth rate was recorded every 3 days by measuring the major and minor axes of the tumors formed with a digital caliper. Measurements were transformed into tumor volume using the formula: tumor volume (mm^3) = major axis × minor axis^2 × 0.5.
# [2] = test system: PANC-1 orthotopic xenografts; test: Anti-cancer efficacy in PANC-1 orthotopic xenografts; assay type: in vivo, mice; conditions: 40 mg/kg iv once every 2 days for 4 weeks
# Description: To establish orthotropic xenograft tumor models, 2.5 × 10^6 cells/50 µL of PANC-1 cells were injected into the pancreas of BALB/cAJcl-nu/nu male mice (8 weeks old; CLEA Japan, Inc.). KS-58 was dissolved in DMSO and then tenfold diluted by saline. The peptide solution was then injected intravenously to the mice bearing tumors once every 2 days for 4 weeks (40 mg/kg, n = 7). Organ weights of the pancreas, liver, and kidney were measured.
# [3] = target: T1, K-Ras(G12D)^GTP–BRAF interaction (Homo sapiens, UniProt P01116, G12D); test: Intracellular PPI inhibition assay using NanoBiT in HEK293T cells; assay type: cell-based; conditions: peptide 30 µM, n = 4
# T1 construct: host or cells: HEK293T
# Description: (§1) Intracellular protein–protein interaction (PPI) inhibition assays were carried out using the NanoBiT system (Promega). Three kinds of plasmids with CMV promoters, which encodes human K-Ras(G12D) fusing SmBiT to the N-terminus, encodes human SOS1 fusing LgBiT to the C-terminus, and encodes human BRAF fusing LgBiT to the C-terminus, were prepared by Promega. Each combination of plasmids was transfected to HEK293T cells by FuGENE HD Reagent (E2312, […]). After 30 h incubation at 37 °C under 5% CO2, the cells were recovered, and seeded to 96-well tissue culture white plate with 10% FBS containing DMEM, and incubated overnight. Peptides were added to the plate and incubated for another 2 h. Nano-Glo (Promega, N2011) was directly added to the plate, and luminescence was immediately monitored. Intracellular K-Ras(G12D)^GDP–SOS1 and K-Ras(G12D)^GTP–BRAF interactions (%) were calculated based on no peptide treatment as 100% and only transfection of plasmid encoding LgBiT fusion protein as 0%.
# [4] = target: T2, K-Ras(G12D)^GDP–SOS1 interaction (Homo sapiens, UniProt P01116, G12D); test: as above; assay type: cell-based; conditions: peptide 30 µM, n = 4
# T2 construct: host or cells: HEK293T
# Description: as §1
# [5] = test system: A549 cells; test: Cell proliferation assay (CellTiter-Glo, 72 h); assay type: cell-based, human; conditions: A549 (G12S), peptide 30 µM, n = 4, ± SEM
# Description: (§2) A427 (ATCC HTB-53), A549 (ATCC CCL-185), H1975 (ATCC CRL-5908), PANC-1 (ATCC CRL-1469), MIA PaCa-2 (ATCC CRL-1420), and Capan-1 (ATCC HTB-79) cells were purchased from ATCC, and each cell was cultured in medium supplemented with 10% fetal bovine serum (FBS), according to the protocol recommended by the manufacture.
# (§3) The effect of peptides on cell proliferation of A427, A549, H1975, PANC-1, MIA PaCa-2, and Capan-1 cells was determined by 72 h exposure to peptides. Cells were seeded at 1000 cells/well in 96-well tissue culture plates in each growth media and allowed to adhere overnight on day 0. Peptides were solved in DMSO and then diluted with each growth media for a constant final DMSO concentration of 0.5%. Media in the wells were removed and replaced with diluted peptide solutions, and cells were incubated for 3 days. During the incubation, medium containing the peptides was replaced every day. Relative cell numbers were estimated using CellTiter-Glo assay kit (G7570, Promega, WI, USA) according to the manufacturer’s instructions. Luminescence was detected using SpectraMax i3x (MOLECULAR DEVICES, CA, USA). Cell proliferation rate (%) was calculated based on cell numbers at day 0 as 0% and at day 3 without peptide treatment as 100%.
# [6] = test system: Capan-1 cells; test: Cell proliferation assay (CellTiter-Glo, 72 h); assay type: cell-based, human; conditions: Capan-1 (G12V), peptide 30 µM, n = 4, ± SEM
# Description: as §2, §3
# [7] = test system: H1975 cells; test: Cell proliferation assay (CellTiter-Glo, 72 h); assay type: cell-based, human; conditions: H1975 (WT), peptide 30 µM, n = 4, ± SEM
# Description: as §2, §3
# [8] = test system: MIA PaCa-2 cells; test: Cell proliferation assay (CellTiter-Glo, 72 h); assay type: cell-based, human; conditions: MIA PaCa-2 (G12C), peptide 30 µM, n = 4, ± SEM
# Description: as §2, §3
# [9] = test system: A427 cells; test: Cell proliferation assay (CellTiter-Glo, 72 h); assay type: cell-based, human; conditions: A427 (G12D), peptide 30 µM, n = 4, ± SEM
# Description: as §2, §3
# [10] = test system: PANC-1 cells; test: Cell proliferation assay (CellTiter-Glo, 72 h); assay type: cell-based, human; conditions: PANC-1 (G12D), peptide 30 µM, n = 4, ± SEM
# Description: as §2, §3
# [11] = test system: phosphorylation of ERK in A427 cells; test: Erk-phosphorylation assay (Phospho-ERK1/ERK2 ELISA); assay type: cell-based, human; conditions: A427, peptide 30 µM, n = 4, ± SEM
# Description: as §2
# (§4) For evaluation of the effect of peptides on Ras–ERK pathways, phosphorylation of ERK was measured by Phospho-ERK1 (T202/Y204)/ERK2 (T185/Y187) DuoSet IC ELISA (DYC1018B-2, R&D SYSTEMS, MN, USA) according to the protocol supplied by the manufacturer. After 16 h serum starvation, cells were treated with peptides diluted in FBS-free medium for 1 h, and then treated with peptides diluted in FBS-containing medium for an additional 1 h. Phosphorylation rate of ERK (%) was calculated based on no serum stimulation as 0% and serum stimulation without peptide treatment as 100%.
# [12] = test system: phosphorylation of ERK in PANC-1 cells; test: as above; assay type: cell-based, human; conditions: PANC-1, peptide 30 µM, n = 4, ± SEM
# Description: as §2, §4
smiles,measurement,setting,value
"CCCCCCC[C@@H]1NC(=O)[C@@H]2CSCCCSC[C@@H](NC(=O)[C@H](Cc3c[nH]c4ccccc34)NC(=O)[C@@H]3CCCN3C(=O)[C@H](CC(=O)O)NC(=O)[C@H](Cc3ccc(F)cc3)NC(=O)[C@H](CO)NC1=O)C(=O)NCCC(=O)N1CCC[C@H]1C(=O)N[C@@H](CCCC)C(=O)N2 [KS-58, c[βAla-Pro-Nle-c(Cys-Anon-Ser-4fF-Asp-Pro-Trp-^DCys)]] (cyclo([βAla]P[Nle]C[X1]S[Phe(4-F)]DPW[dC]); linker 4-11 via X2)",Tumor growth (tumor volume) in subcutaneous xenografts,[1],significant tumor growth suppression
same,"Adverse side effects (loss of body weight, organ swelling of liver and kidney)",[2]; both xenografts,without any adverse side effects
same,"cell growth of PANC-1 (pancreas weight; Sham = 0%, vehicle = 100%)",[2]; orthotopic xenograft,65%
same,"Intracellular K-Ras(G12D)^GTP–BRAF interaction (luminescence, %)",[3],53.8%
same,"Intracellular K-Ras(G12D)^GDP–SOS1 interaction (luminescence, %)",[4],35.5%
same,Cell proliferation (%),[5],81.3 ± 1.5%
same,Cell proliferation (%),[6],94.9 ± 2.2%
same,Cell proliferation (%),[7],92.7 ± 0.3%
same,Cell proliferation (%),[8],86.8 ± 2.3%
same,Cell proliferation (%),[9],21.1% and 21.1 ± 5.5%
same,Cell proliferation (%),[10],50.1% and 50.1 ± 4.1%
same,pERK (%),[11],26.0% and 26.0 ± 6.0%
same,pERK (%),[12],57.6% and 57.6 ± 7.6%
